Data from patent publication US12630534B2 (TAKEDA PHARMACEUTICAL COMPANY LIMITED, priority 2020, dated 2026).

Biological target: T1, human GPR139 (Homo sapiens, UniProt Q6DWJ6)
T1 construct: expressed in transfected cells; host or cells: CHO-TREx (Life Technologies) cells, expression induced with doxycycline
T1 sequence (Q6DWJ6 1-353): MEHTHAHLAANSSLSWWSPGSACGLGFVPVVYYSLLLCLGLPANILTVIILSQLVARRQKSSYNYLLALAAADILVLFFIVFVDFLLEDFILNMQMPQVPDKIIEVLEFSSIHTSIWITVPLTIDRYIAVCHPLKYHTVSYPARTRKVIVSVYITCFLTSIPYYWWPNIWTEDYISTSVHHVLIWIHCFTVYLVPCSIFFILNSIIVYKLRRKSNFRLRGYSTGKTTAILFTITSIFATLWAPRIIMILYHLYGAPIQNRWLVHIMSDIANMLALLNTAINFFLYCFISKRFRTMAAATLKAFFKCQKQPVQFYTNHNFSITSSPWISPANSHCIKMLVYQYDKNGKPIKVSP
Test: Inhibition rate of the amount of IP1 in GPR139-expressed CHO cells (inverse agonist assay, Test Example 2)
Assay type: cell-based
Details: CHO, relative value, inhibition rate of Example Compound 2 in Test Example 1 defined as 100%
Method: The measurement of IP1 was made using an IP-ONE HTFR assay kit (cis-bio) and CHO-TREx (Life Technologies) cells stably transfected with GPR139. The CHO-TREx cells expressed human GPR139 with a tetracycline-inducing element. The cells were cultured in a medium containing F12K and 10% tetracycline-free FBS, and the expression of human GPR139 was induced over the course of 17 hours under conditions of 37° C. and 5% CO2 in the presence of 2 μg/mL of doxycycline (Clontech, 631311) in the growth medium on the day before assay. On the day of the test, after the cells were washed with 10 mL of PBS, the cells were detached with TrypLE Express (Life Technologies) and centrifuged at 1,000 rpm to form pellets, and a cell suspension was then prepared using a stimulation buffer (cis-bio, included in the IP-ONE HTRF assay kit).
The compound was diluted with the stimulation buffer, and 4 μL was added to a 384-well white assay plate (Greiner). The cell suspension was added so that there were 2000 cells per well, and the assay plate was left to stand for 40 minutes at 37° C. Equal amounts of IP1-d2 and Ab-Crp solutions (both available from cis-bio, included in the IP-ONE HTRF assay kit) prepared with a lysis buffer (cis-bio, included in the IP-ONE HTRF assay kit) were mixed, and 4 μL was added to the assay plate and left to stand for one hour at room temperature. After the fluorescence strengths of two wavelengths were measured by the HTRF settings of Envision (PerkinElmer), the value of Ratio={(Signal 665 nm)/(Signal 615 nm)}×10000 was calculated.
Measurement of the Inhibition Rate of the Amount of IP1 in GPR139-Expressed CHO Cells (Inverse Agonist Assay)
The activities of the compounds of Examples 1 and 3 to 167 were expressed as relative values in Table 2 by measuring the inhibition rate of the amount of IP1 with the same method as in Test Example 1 and defining the inhibition rate of the amount of IP1 of Example Compound 2 in Test Example 1 as […].

Row | Compound | inhibition at 30 µM [%]
1 | CCn1cc(Cn2cc(C)n(-c3cc(OCC(F)(F)F)cc(N4CCO[C@H](C)C4)c3)c2=O)cn1 [Example 72, 1-[(1-ethyl-1H-pyrazol-4-yl)methyl]-4-methyl-3-{3-[(2R)-2-methylmorpholin-4-yl]-5-(2,2,2-trifluoroethoxy)phenyl}-1,3-dihydro-2H-imidazol-2-one] | 99
2 | CCn1cc(Cn2c(C)c(C)n(-c3cc(N4CCOC(F)(F)C4)cc(C(F)(F)F)c3)c2=O)cn1 [Example 63, 1-[3-(2,2-difluoromorpholin-4-yl)-5-(trifluoromethyl)phenyl]-3-[(1-ethyl-1H-pyrazol-4-yl)methyl]-4,5-dimethyl-1,3-dihydro-2H-imidazol-2-one] | 100
3 | CCn1cc(Cn2c(C)nn(-c3cc(C(F)(F)F)c(F)c(N4CCC(F)(F)CC4)n3)c2=O)cn1 [Example 154, 2-[6-(4,4-difluoropiperidin-1-yl)-5-fluoro-4-(trifluoromethyl)pyridin-2-yl]-4-[(1-ethyl-1H-pyrazol-4-yl)methyl]-5-methyl-2,4-dihydro-3H-1,2,4-triazol-3-one] | 98
4 | CCn1cc(Cn2cc(C)n(-c3cc(N4C[C@@H](C)O[C@@H](C)C4)cc(C(F)(F)F)c3)c2=O)cn1 [Example 23, 3-{3-[(2R,6S)-2,6-dimethylmorpholin-4-yl]-5-(trifluoromethyl)phenyl}-1-[(1-ethyl-1H-pyrazol-4-yl)methyl]-4-methyl-1,3-dihydro-2H-imidazol-2-one] | 100
5 | CCn1cc(Cn2cc(C)n(-c3cc(C4CC4)cc(N4CCO[C@H](C)C4)c3)c2=O)cn1 [Example 104, 3-{3-cyclopropyl-5-[(2R)-2-methylmorpholin-4-yl]phenyl}-1-[(1-ethyl-1H-pyrazol-4-yl)methyl]-4-methyl-1,3-dihydro-2H-imidazol-2-one] | 104
6 | CCn1cc(Cn2ccn(-c3cc(N4C[C@@H](C)O[C@@H](C)C4)cc(C(F)(F)F)c3F)c2=O)cn1 [Example 31, 1-{5-[(2R,6S)-2,6-dimethylmorpholin-4-yl]-2-fluoro-3-(trifluoromethyl)phenyl}-3-[(1-ethyl-1H-pyrazol-4-yl)methyl]-1,3-dihydro-2H-imidazol-2-one] | 100
7 | CC(C)n1cc(Cn2ccn(-c3nc(N4CCOC(C)(C)C4)cc(C(F)(F)F)c3F)c2=O)cn1 [Example 132, 1-[6-(2,2-dimethylmorpholin-4-yl)-3-fluoro-4-(trifluoromethyl)pyridin-2-yl]-3-{[1-(propan-2-yl)-1H-pyrazol-4-yl]methyl}-1,3-dihydro-2H-imidazol-2-one] | 99
8 | CCn1cc(Cn2cc(C)n(-c3cc(Oc4ccc(F)cc4)cc(C(F)(F)F)c3)c2=O)cn1 [Example 5, 1-[(1-ethyl-1H-pyrazol-4-yl)methyl]-3-[3-(4-fluorophenoxy)-5-(trifluoromethyl)phenyl]-4-methyl-1,3-dihydro-2H-imidazol-2-one] | 99
9 | Cc1nn(-c2cc(N3CCO[C@@H](C)C3)cc(C(F)(F)F)c2F)c(=O)n1Cc1cnn(C(C)C)c1 [Example 90, 2-{2-fluoro-5-[(2S)-2-methylmorpholin-4-yl]-3-(trifluoromethyl)phenyl}-5-methyl-4-{[1-(propan-2-yl)-1H-pyrazol-4-yl]methyl}-2,4-dihydro-3H-1,2,4-triazol-3-one] | 99
10 | CCn1cc(Cn2cc(C)n(-c3cc(OCC4CCO4)cc(C(F)(F)F)c3)c2=O)cn1 (centres unmarked) [Example 49, 1-[(1-ethyl-1H-pyrazol-4-yl)methyl]-4-methyl-3-{3-[(oxetan-2-yl)methoxy]-5-(trifluoromethyl)phenyl}-1,3-dihydro-2H-imidazol-2-one] | 102
11 | CCn1cc(Cn2cc(C)n(-c3cc(C(F)(F)F)cc(N(C)C4CCOCC4)n3)c2=O)cn1 [Example 86, 1-[(1-ethyl-1H-pyrazol-4-yl)methyl]-4-methyl-3-{6-[methyl(oxan-4-yl)amino]-4-(trifluoromethyl)pyridin-2-yl}-1,3-dihydro-2H-imidazol-2-one] | 101
12 | CCn1cc(Cn2c(C)cn(-c3cc(N4CCO[C@H](C)C4)cc(C(F)(F)F)c3C)c2=O)cn1 [Example 62, 3-[(1-ethyl-1H-pyrazol-4-yl)methyl]-4-methyl-1-{2-methyl-5-[(2R)-2-methylmorpholin-4-yl]-3-(trifluoromethyl)phenyl}-1,3-dihydro-2H-imidazol-2-one] | 99
13 | CCn1cc(Cn2cc(C)n(-c3cc(C4CC4)c(F)c(N4CCO[C@H](C)C4)c3)c2=O)cn1 [Example 160, 3-{3-cyclopropyl-4-fluoro-5-[(2R)-2-methylmorpholin-4-yl]phenyl}-1-[(1-ethyl-1H-pyrazol-4-yl)methyl]-4-methyl-1,3-dihydro-2H-imidazol-2-one] | 98
14 | CCn1cc(Cn2ccn(-c3cc(OC4CCOCC4)cc(C(F)(F)F)c3F)c2=O)cn1 [Example 116, 1-[(1-ethyl-1H-pyrazol-4-yl)methyl]-3-{2-fluoro-5-[(oxan-4-yl)oxy]-3-(trifluoromethyl)phenyl}-1,3-dihydro-2H-imidazol-2-one] | 101
15 | Cc1cn(Cc2cnn(C(C)C)c2)c(=O)n1-c1cc(C(F)(F)F)cc(N2CCO[C@H](C)C2)n1 [Example 103, 4-Methy-3-{6-[(2R)-2-methylmorpholine-4-yl]-4-(trifluoromethyl)pyridine-2-yl}-1-{[1-(propane-2-yl)-1H-pyrazole-4-yl]methyl}-1,3-dihydro-2H-imidazole-2-one] | 103
16 | CCn1cc(Cn2ccn(-c3cc(N4CCO[C@H](C)C4)cc(OC(F)(F)F)c3F)c2=O)cn1 [Example 153, 1-[(1-ethyl-1H-pyrazol-4-yl)methyl]-3-{2-fluoro-5-[(2R)-2-methylmorpholin-4-yl]-3-(trifluoromethoxy)phenyl}-1,3-dihydro-2H-imidazol-2-one] | 100
17 | CCn1cc(Cn2cc(C)n(-c3cc(C(F)(F)F)cc(NCC4(F)CCC4)n3)c2=O)cn1 [Example 110, 1-[(1-Ethyl-1-pyrazole-4-yl)methyl]-3-[6={[(1-fluorocyclobutyl)methyl]amino}-4-(trifluoromethyl)pyridine-2-yl]-4-methyl-1,3-dihydro-2H-imidazole-2-one] | 101
18 | Cc1cn(Cc2cnn(C(C)C)c2)c(=O)n1-c1cc(C2CC2)cc(N2CCO[C@H](C)C2)n1 [Example 126, 3-{4-cyclopropyl-6-[(2R)-2-methylmorpholin-4-yl]pyridin-2-yl}-4-methyl-1-{[1-(propan-2-yl)-1H-pyrazol-4-yl]methyl}-1,3-dihydro-2H-imidazol-2-one] | 100
19 | CCn1cc(Cn2cc(C)n(-c3cc(OC[C@@H]4CCCO4)cc(C(F)(F)F)c3)c2=O)cn1 [Example 66, 1-[(1-ethyl-1H-pyrazol-4-yl)methyl]-4-methyl-3-[3-{[(2S)-oxolan-2-yl]methoxy}-5-(trifluoromethyl)phenyl]-1,3-dihydro-2H-imidazol-2-one] | 99
20 | CCn1cc(Cn2c(C(F)(F)F)cn(-c3nc(N4CCO[C@H](C)C4)cc(C(F)(F)F)c3F)c2=O)cn1 [Example 127, 3-[(1-Ethyl-1H-pyrazole-4-yl)methyl]-1-{3 fluoro-6-[(2R)-2-methylmorpholine-4-yl]-4-(trifluoromethyl)pyridine-2-yl}-4-(trifluoromethyl)-1,3-dihydro-2H-imidazole-2-one] | 99
21 | CCn1cc(Cn2cc(C)n(-c3cc(C(F)(F)F)c(F)c(N4CCO[C@H](C)C4)n3)c2=O)cn1 [Example 149, 1-[(1-ethyl-1H-pyrazol-4-yl)methyl]-3-{5-fluoro-6-[(2R)-2-methylmorpholin-4-yl]-4-(trifluoromethyl)pyridin-2-yl}-4-methyl-1,3-dihydro-2H-imidazol-2-one] | 101
22 | CCn1cc(Cn2cc(C)n(-c3cc(OCC4CC4(F)F)cc(C(F)(F)F)c3)c2=O)cn1 (centres unmarked) [Example 22, 3-{3-[(2,2-difluorocyclopropyl)methoxy]-5-(trifluoromethyl)phenyl}-1-[(1-ethyl-1H-pyrazol-4-yl)methyl]-4-methyl-1,3-dihydro-2H-imidazol-2-one] | 100
23 | CCn1cc(Cn2cc(C)n(-c3cc(Br)cc(OCC4CC(F)(F)C4)c3)c2=O)cn1 [Example 65, 3-{3-bromo-5-[(3,3-difluorocyclobutyl)methoxy]phenyl}-1-[(1-ethyl-1H-pyrazol-4-yl)methyl]-4-methyl-1,3-dihydro-2H-imidazol-2-one] | 98
